Test results reported in ChEMBL document CHEMBL5154661, “Novel 2-phenyl-3-(Pyridin-2-yl) thiazolidin-4-one derivatives as potent inhibitors for proliferation of osteosarcoma cells in vitro and in vivo” (Eur J Med Chem, 2022).
Calls of active or inactive are those of the source. The calls are words filed in the database; no cut-off is given here.

What was measured:
HOS-TE85 [1] = assay: Antiproliferative activity against human MNNG/HOS cells with increase MYOF expression assessed as cell growth inhibition incubated for 72 hrs by CCK-8 assay; format: functional, cell-based; conditions: HOS-TE85, 72 h
[2] = Cytotoxicity against human BMSC cells assessed as growth inhibition measured after 72 hrs by CCK-8 assay; format: toxicity, cell-based, HBMSC
U2OS = assay: Antiproliferative activity against human U2OS cells assessed as cell growth inhibition measured after 72 hrs by CCK-8 assay; format: functional, cell-based
HOS-TE85 [3] = assay: Cell cycle arrest in human MNNG/HOS cells assessed as accumulation at G2/M phase at 5 uM measured after 24 hrs by propidium iodide staining based flow cytometry(Rvb=21.2%); format: functional
[4] = Bioavailability in male ICR mouse at 62.5 mg/kg, ip measured upto 24 hrs by LC-MS/MS analysis; format: ADME, organism-based; conditions: in vivo
[5] = Toxicity in BALB/c nude mouse xenografted with human MNNG/HOS cells assessed as effect on ratio of kidney weight to body weight at 62.5 mg/kg, ip administered twice per day for 18 days; format: organism-based, HOS-TE85; conditions: in vivo, 432 h, time 18 day
HOS-TE85 [6] = assay: Antiproliferative activity against human MNNG/HOS cells assessed as cell growth inhibition measured after 72 hrs by CCK-8 assay; format: functional, cell-based; conditions: HOS-TE85, 72 h
[7] = Toxicity in ICR mouse at 800 mg/kg, ip; format: organism-based; conditions: in vivo
[8] = Plasma clearance in male ICR mouse at 12.5 mg/kg, iv measured upto 24 hrs by LC-MS/MS analysis; format: ADME, organism-based
HOS-TE85 [9] = assay: Antiproliferative activity against human MNNG/HOS cells with low MYOF expression assessed as cell growth inhibition incubated for 72 hrs by CCK-8 assay; format: functional, cell-based; conditions: HOS-TE85, 72 h
[10] = AUC(0 to infinity) in male ICR mouse at 62.5 mg/kg, ip measured upto 24 hrs by LC-MS/MS analysis; format: ADME, organism-based; design: dose 62.5 mg/kg, time < 24 hrs, route ip; conditions: in vivo
SW1353 = assay: Antiproliferative activity against human SW1353 cells assessed as cell growth inhibition measured after 72 hrs by CCK-8 assay; format: functional, cell-based; conditions: SW1353, 72 h
[11] = Toxicity in BALB/c nude mouse xenografted with human MNNG/HOS cells assessed as effect on ratio of spleen weight to body weight at 62.5 mg/kg, ip administered twice per day for 18 days; format: organism-based, HOS-TE85; conditions: in vivo, 432 h, time 18 day
HOS = assay: Antiproliferative activity against human HOS cells assessed as cell growth inhibition measured after 72 hrs by CCK-8 assay; format: functional, cell-based
[12] = Toxicity in BALB/c nude mouse xenografted with human MNNG/HOS cells assessed as effect on spleen morphology by H and E staining assay at 62.5 mg/kg, ip administered twice per day for 18 days; format: organism-based, HOS-TE85; conditions: in vivo, 432 h, time 18 day
[13] = Half life in male ICR mouse at 5 mg/kg, iv measured upto 24 hrs by LC-MS/MS analysis; format: ADME, organism-based; conditions: in vivo
HOS-TE85 [14] = assay: Inhibition of cell migration in human MNNG/HOS cells at 20 nM measured after 24 hrs by wound healing assay relative to control; format: functional
HOS-TE85 [15] = assay: Cell cycle arrest at human MNNG/HOS cells assessed as accumulation at G0/G1 phase at 5 uM measured after 24 hrs by propidium iodide staining based flow cytometry(Rvb=37.12%); format: functional
SJSA-1 [16] = assay: Antiproliferative activity against human SJSA-1 cells with increase MYOF expression assessed as cell growth inhibition incubated for 72 hrs by CCK-8 assay; format: functional, cell-based; conditions: SJSA-1, 72 h
[17] = AUC(0 to infinity) in male ICR mouse at 12.5 mg/kg, iv measured upto 24 hrs by LC-MS/MS analysis; format: ADME, organism-based; design: time < 24 hrs, dose 12.5 mg/kg, route iv; conditions: in vivo
[18] = Oral bioavailability in male ICR mouse at 25 mg/kg measured upto 24 hrs by LC-MS/MS analysis; format: ADME, organism-based; conditions: in vivo
[19] = Toxicity in BALB/c nude mouse xenografted with human MNNG/HOS cells assessed as effect on liver morphology by H and E staining assay at 62.5 mg/kg, ip administered twice per day for 18 days; format: organism-based, HOS-TE85; conditions: in vivo, 432 h, time 18 day
[20] = Half life in male ICR mouse at 12.5 mg/kg, iv measured upto 24 hrs by LC-MS/MS analysis; format: ADME, organism-based; conditions: in vivo
K562 = assay: Antiproliferative activity against human K562 cells with low MYOF expression assessed as cell growth inhibition incubated for 72 hrs by CCK-8 assay; format: functional, cell-based; conditions: K562, 72 h
[21] = Toxicity in ICR mouse at 300 mg/kg, ip administered daily for a week; format: organism-based; conditions: in vivo
SAOS-2 = assay: Antiproliferative activity against human SAOS-2 cells assessed as growth inhibition measured after 72 hrs by CCK-8 assay; format: functional, cell-based; conditions: SAOS-2, 72 h
MG-63 [22] = assay: Antiproliferative activity against human MG-63 cells assessed as cell growth inhibition measured after 72 hrs by CCK-8 assay; format: functional, cell-based; conditions: MG-63, 72 h
[23] = Toxicity in BALB/c nude mouse xenografted with human MNNG/HOS cells assessed as effect on ratio of heart weight to body weight at 62.5 mg/kg, ip administered twice per day for 18 days; format: organism-based, HOS-TE85; conditions: in vivo, 432 h, time 18 day
[24] = Toxicity in BALB/c nude mouse xenografted with human MNNG/HOS cells assessed as effect on heart morphology by H and E staining assay at 62.5 mg/kg, ip administered twice per day for 18 days; format: organism-based, HOS-TE85; conditions: in vivo, 432 h, time 18 day
143B = assay: Antiproliferative activity against human 143B cells assessed as cell growth inhibition measured after 72 hrs by CCK-8 assay; format: functional, cell-based
[25] = Drug distribution in plasma of BALB/c nude mouse xenografted with human MNNG/HOS cells at 62.5 mg/kg,ip measured after 12 hrs; format: ADME, organism-based, HOS-TE85
HL-60 = assay: Antiproliferative activity against human HL-60 cells with low MYOF expression assessed as cell growth inhibition incubated for 72 hrs by CCK-8 assay; format: functional, cell-based; conditions: HL-60, 72 h
[26] = Cytotoxicity against human GES1 cells assessed as growth inhibition measured after 72 hrs by CCK-8 assay; format: toxicity, cell-based
[27] = Drug distribution in tumor of BALB/c nude mouse xenografted with human MNNG/HOS cells at 62.5 mg/kg,ip measured after 12 hrs; format: ADME, organism-based, Neoplasm, HOS-TE85; conditions: read-out: Ct
SJSA-1 [28] = assay: Antiproliferative activity against human SJSA-1 cells assessed as cell growth inhibition measured after 72 hrs by CCK-8 assay; format: functional, cell-based; conditions: SJSA-1, 72 h
HOS-TE85 [29] = assay: Antitumor activity against human MNNG/HOS cells xenografted in BALB/c nude mouse assessed as reduction in tumor weight at 62.5 mg/kg, ip administered twice per day for 18 days; format: functional, organism-based; conditions: time 18.0 day
HOS-TE85 [30] = assay: Antitumor activity against human MNNG/HOS cells xenografted in female BALB/c nude mouse assessed as tumor growth inhibition at 62.5 mg/kg, ip administered twice per day for 18 days relative to control; format: functional; conditions: HOS-TE85, 432 h, time 18 day, read-out: TGI
[31] = Cmax in male ICR mouse at 62.5 mg/kg, ip measured upto 24 hrs by LC-MS/MS analysis; format: ADME, organism-based; design: dose 62.5 mg/kg, time < 24 hrs, route ip; conditions: in vivo
[32] = Toxicity in BALB/c nude mouse xenografted with human MNNG/HOS cells assessed as body weight loss at 62.5 mg/kg, ip administered twice per day for 18 days; format: organism-based, HOS-TE85; conditions: in vivo, 432 h, time 18 day
[33] = Toxicity in BALB/c nude mouse xenografted with human MNNG/HOS cells assessed as effect on kidney morphology by H and E staining assay at 62.5 mg/kg, ip administered twice per day for 18 days; format: organism-based, HOS-TE85; conditions: in vivo, 432 h, time 18 day
MG-63 [34] = assay: Antiproliferative activity against human MG-63 cells with increase MYOF expression assessed as cell growth inhibition incubated for 72 hrs by CCK-8 assay; format: functional, cell-based; conditions: MG-63, 72 h
[35] = Half life in male ICR mouse at 62.5 mg/kg, ip measured upto 24 hrs by LC-MS/MS analysis; format: ADME, organism-based; conditions: in vivo
HOS-TE85 [36] = assay: Cell cycle arrest at human MNNG/HOS cells assessed as accumulation at S phase at 5 uM measured after 24 hrs by propidium iodide staining based flow cytometry(Rvb=38.9%); format: functional
HOS-TE85 [37] = assay: Inhibition of cell migration in human MNNG/HOS cells at 5 nM measured after 24 hrs by transwell assay; format: functional
[38] = Toxicity in BALB/c nude mouse xenografted with human MNNG/HOS cells assessed as effect on ratio of liver weight to body weight at 62.5 mg/kg, ip administered twice per day for 18 days; format: organism-based, HOS-TE85; conditions: in vivo, 432 h, time 18 day

IC50 (U2OS): 26.5 nM
bioavailability [4]: 52.1%
clearance [8]: 66.9 mL/min/kg
AUC(0-inf) [10]: 8410 ng·h/mL
IC50 (SW1353): 19.9 nM
half-life [13]: 23.4 min
IC50 (SJSA-1 [16]): 62.2 nM
AUC(0-inf) [17]: 3230 ng·h/mL
bioavailability [18]: 0.36%
half-life [20]: 3.66 min
IC50 (K562): 28.1 nM
concentration at 12 h [25]: 55.5 nM
IC50 (HL-60): 19 nM
concentration at 12 h [27]: 110 nM
IC50 (SJSA-1 [28]): 62.2 nM
Cmax [31]: 20500 ng/mL
half-life [35]: 38.5 min
Structure (SMILES): Cc1ccnc(N2C(=O)CS[C@@H]2c2cccc(C(=O)NCCCCn3cccn3)c2)c1
IC50 (HOS-TE85 [1]): 31.6 nM
IC50 at 72 h [2]: > 10000 nM
Activity (HOS-TE85 [3]): 10.21%
Activity [5]: Non-Toxic
IC50 (HOS-TE85 [6]): 21.9 nM
Activity [7]: Non-Toxic
IC50 (HOS-TE85 [9]): 35.2 nM
Activity [11]: Non-Toxic
IC50 (HOS): 50.9 nM
Activity [12]: Non-Toxic
inhibition at 0.02 µM (HOS-TE85 [14]): 50%
Activity (HOS-TE85 [15]): 59.69%
Activity [19]: Non-Toxic
Activity [21]: Non-Toxic
IC50 (SAOS-2): 26.8 nM
IC50 (MG-63 [22]): 14.9 nM
Activity [23]: Non-Toxic
Activity [24]: Non-Toxic
IC50 (143B): 29.5 nM
IC50 at 72 h [26]: > 20000 nM
Activity (HOS-TE85 [29]): Active
inhibition in vivo at 62.5 mg/kg (HOS-TE85 [30]): 52.9%
Activity [32]: Non-Toxic
Activity [33]: Non-Toxic
IC50 (MG-63 [34]): 14.9 nM
Activity (HOS-TE85 [36]): 30.1%
inhibition at 0.005 µM (HOS-TE85 [37]): 60%
Activity [38]: Non-Toxic
